Test results published in US6011019A, “Vasoactive effects and free radical generation by β-amyloid peptides” (University of South Florida, priority 1996, dated 2000).

Key:
blood vessel (rat aorta) = experiment: Acetylcholine induced relaxation of preconstricted rat aorta after β-amyloid; settings: for acetylcholine induced relaxation after β-amyloid pretreatment: 10^-6 M β-amyloid fifteen minutes, preconstricted with 10^-7 M phenylephrine
Protocol: The blood vessel preparations were mounted on stainless steel hooks attached to a force-displacement transducer and equilibrated under the optimum tension of 1.3 g for a period of sixty minutes in a tissue bath (10 ml) containing oxygenated (5% CO2 in O2) Kreb's buffer at 37° C. The buffer was changed every fifteen minutes. After equilibration for sixty minutes the viability of the blood vessel with intact endothelium was established by constricting the blood vessel using phenylephrine ([…]). This dose of phenylephrine elicited 80% of the maximum response. […] The vessel preparations were washed for fifteen minutes before various manipulations as described below.
(1=10^-9 M, 2=10^-8 M, 3=5×10^-8 M, 4=10^-7 M, 5=5×10^-7 M, 6=10^-6 M, 7=10^-5 M, 8=5×10^-5 M, the curve denoted by (C) is the control curve and +Aβ indicates the curve for β-amyloid treated aorta.)
FIG. 11 illustrates the relaxation by acetylcholine under control conditions and following fifteen minute incubation with 10^-6 M β-amyloid protein. The acetylcholine relaxation curve is shifted to the right but maintains its sigmoidal form indicating attenuation of acetylcholine induced relaxation. Values represent the mean±SEM of 5 or more experiments. […] At higher doses of acetylcholine greater percentage changes in relaxation occur preserving the sigmoidal response.

[1] = system: porcine coronary arteries; experiment: Porcine coronary artery vascular tone and bradykinin relaxation
Excerpt: Freshly isolated porcine coronary arteries were studied by the methods described above for rat aorta.
The effect of pre-treatment with a single dose of amyloid protein on relaxation induced by increasing concentrations of the vasodilator bradykinin is shown in FIG. 23. […] was preconstricted with a single dose of the vasoconstrictor U46619.

[2] = system: endothelial cells in aortic rings; experiment: Electron microscopy of endothelial cell layer in aortic rings; design: species or system rat
Protocol: As shown in FIGS. 14A-F, […], or in presence of β-amyloid (10^-6 M), or SOD (150 units/ml) and β-amyloid.The tissue samples were kept in glutaraldehyde solution at 4° C. until processed and then rinsed with cacodylate buffer. The tissues were postfixed with 1% buffered osmium tetroxide, dehydrated with graded ethanol solutions, and embedded in a mixture of eponaraldite. Ultrathin sections were stained with uranyl acetate and lead citrate and viewed on model 7000 Hitachi transmission electron microscope. The inset bar indicates one micron. The experiment was repeated three or more times with blood vessels from different animals.

In the case of β-amyloid, the “acetylcholine induced relaxation after β-amyloid pretreatment” value (blood vessel (rat aorta)) is reported as “significantly reduced relaxation”, the “acetylcholine induced relaxation after β-amyloid pretreatment” value (blood vessel (rat aorta); listed as β-amyloid protein) is reported as “significantly lowered” and the “restoration of acetylcholine induced relaxation by washing after β-amyloid” value (blood vessel (rat aorta); tissue washed following β-amyloid exposure) is reported as “did not restore the acetylcholine-induced relaxation to control levels”. For the same substance, the “contraction of porcine coronary artery” value ([1]; increasing concentrations of amyloid peptide) was “dose dependent contraction”, the “vasodilation caused by bradykinin after amyloid peptide” value ([1]; single dose of amyloid, increasing bradykinin) was “reduced the vasodilation caused by the bradykinin” and the “vasoconstriction by U46619 after amyloid peptide” value ([1]; single dose of amyloid, preconstricted with U46619) was “significant increase in vasoconstriction”. The “β-amyloid concentration required to induce the morphological changes” value ([2]; incubation periods of fifteen minutes) was > 5×10^-7 M and the “endothelial cell morphology after incubation” value ([2]; β-amyloid 10^-6 M, 37° C., thirty minutes) was “induced significant damage to the endothelial cells”.
